Five compounds from patent US5281263A, “Azo dyes containing a carboxy group” (Imperial Chemical Industries PLC, priority 1991, dated 1994) can be followed below.

≈ marks a conversion by molar mass, not a printed value.

The nature of data set [1]: solubility of the dye in water. Format: physicochemical.
Data set [2] is described as follows: absorption of the dye: lambda max and E max. The data set is classed as physicochemical.

In data set [1] (temperature and pH not given), `O=C(O)c1ccc(N=Nc2ccc(N=Nc3c(S(=O)(=O)O)cc4ccc(Nc5cccc(C(=O)O)c5)cc4c3O)c3ccccc23)cc1` [Example 3] yielded a solubility of about 80 mg/mL (≈ 121 mM). In addition, in data set [2], the E max result is on record as “about 23,500” and the lambda max worked out at 553 nm.

`O=C(O)c1cccc(N=Nc2ccc(N=Nc3c(S(=O)(=O)O)cc4ccc(Nc5cccc(C(=O)O)c5)cc4c3O)c3cc(S(=O)(=O)O)ccc23)c1` [Example 6] had a solubility in data set [1] (temperature and pH not given) of about 100 mg/mL (≈ 135 mM). In addition, in data set [2], the E max result is “about 15,000” and the lambda max is on record as 578 nm.

Take `O=C(O)c1ccc(N=Nc2ccc(N=Nc3c(S(=O)(=O)O)cc4ccc(Nc5ccc(C(=O)O)cc5)cc4c3O)c3ccccc23)cc1` [Example 2]: the solubility in data set [1] (25° C.) is about 80 mg/mL (≈ 121 mM). Also, in data set [2], the E max entry is reported as “about 22,000” and the lambda max amounted to 567 nm.

In the case of `O=C(O)c1ccc(Nc2ccc3cc(S(=O)(=O)O)c(N=Nc4ccc(N=Nc5cccc(C(=O)O)c5)c5ccccc45)c(O)c3c2)cc1` [Example 1], the solubility in data set [1] (25° C., pH 9.5) is about 80 mg/mL (≈ 121 mM). For the same compound, in data set [2], the E max entry is “about 24,500” and the lambda max was 558 nm.

Compound `O=C(O)c1ccc(Nc2ccc3cc(S(=O)(=O)O)c(N=Nc4ccc(N=Nc5cccc(C(=O)O)c5)c5ccc(S(=O)(=O)O)cc45)c(O)c3c2)cc1` [Example 4] gave a solubility in data set [1] (25° C., pH 8.5) of 130 to 150 mg/mL (≈ 175 to 202 mM). Besides, in data set [2], the E max entry is recorded as “about 24,000” and the lambda max is reported as 588 nm.
